The values that follow come from US20250101011A1, “PEPTIDYL NITRILE COMPOUND AND USE THEREOF” (SHANGHAI YIDIAN PHARMACEUTICAL TECHNOLOGY DEVELOPMENT CO., …, priority 2022, published 2025).

The target of the assay is DPP1 (Homo sapiens (Human), UniProt P53634). The assay is described as follows: DPP1 activity inhibition test on U937 cells. Conditions: substrate h-Gly-phe-AFC; for IC50: intracellular enzyme activity; for inhibition at 0.005 µM: U-937, 5 nM compound; for inhibition at 0.05 µM: U-937, 50 nM compound. The class given is cell-based. The method, then:
After incubation at 37° C. for 1 h, add h-Gly-phe-AFC (10 μL) to each well and start reaction.

DPP1, sequence (P53634 25-463): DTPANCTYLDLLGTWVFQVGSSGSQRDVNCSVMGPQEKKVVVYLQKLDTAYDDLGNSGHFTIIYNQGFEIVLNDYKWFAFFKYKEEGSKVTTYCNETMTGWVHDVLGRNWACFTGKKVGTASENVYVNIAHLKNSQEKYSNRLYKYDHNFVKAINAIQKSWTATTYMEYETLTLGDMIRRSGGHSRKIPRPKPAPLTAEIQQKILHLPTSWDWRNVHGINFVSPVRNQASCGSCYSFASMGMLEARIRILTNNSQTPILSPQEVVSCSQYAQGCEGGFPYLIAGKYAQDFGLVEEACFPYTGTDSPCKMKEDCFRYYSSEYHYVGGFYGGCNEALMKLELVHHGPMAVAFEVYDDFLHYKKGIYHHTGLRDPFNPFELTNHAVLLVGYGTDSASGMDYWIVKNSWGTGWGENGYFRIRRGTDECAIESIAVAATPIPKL

For `N#C[C@H](Cc1ccc(-c2ccc3c(c2)C2CC2C3=O)cc1F)NC(=O)[C@@H]1CNCCCO1` (stereo partly shown) [Compound D122], the IC50 (commonly the midpoint of a concentration-inhibition curve) is 0.017 µM. As to `Cn1c(=O)oc2ccc(-c3ccc(C[C@@H](C#N)NC(=O)[C@@H]4CNCCCO4)cc3)cc21` [AZD7986, Brensocatib, reference compound], the inhibition – broadly, how much of the control response was suppressed – at 0.005 µM is 30 to 75% and the inhibition at 0.05 µM is 75 to 100%. On to `CN1CCC2(CC1)OC(=O)c1ccc(-c3ccc(C[C@@H](C#N)NC(=O)[C@@H]4CNCCCO4)cc3)nc12` [Compound D29], for which the inhibition at 0.005 µM lay within 30 to 75% and the inhibition at 0.05 µM fell in the range of 75 to 100%. For `CN1CC(n2c(=O)oc3ccc(-c4ccc(C[C@@H](C#N)NC(=O)[C@@H]5CNCCCO5)cc4)cc32)C1` [Compound D24], in that order: 30 to 75% and 75 to 100%. For `CN1CCC2(CC1)OCc1ccc(-c3ccc(C[C@@H](C#N)NC(=O)[C@@H]4CNCCCO4)cc3)nc12` [Compound D31], in that order: less than 30% and 30 to 75%. Molecule `CS(=O)(=O)Cn1c(=O)oc2ccc(-c3ccc(C[C@@H](C#N)NC(=O)[C@@H]4CNCCCO4)c(F)c3)cc21` [Compound D80] displayed an inhibition at 0.005 µM of less than 30% and an inhibition at 0.05 µM of less than 30%. On to `Cn1c(=O)oc2ccc(-c3ccc(C[C@@H](C#N)NC(=O)[C@@H]4CNCC(F)(F)CO4)cc3)cc21` [Compound D51], for which the IC50 is greater than 1 µM.

With `N#C[C@H](Cc1ccc(-c2ccc3c(n2)C2(CCN(C4COC4)CC2)OC3=O)cc1)NC(=O)[C@@H]1CNCCCO1` [Compound D28], the inhibition at 0.005 µM fell in the range of 30 to 75% and the inhibition at 0.05 µM is 75 to 100%. For `CN1Cc2cc(-c3ccc(C[C@@H](C#N)NC(=O)[C@@H]4CNCCCO4)cc3)sc2C1=O` [Compound D12], in that order: less than 30% and less than 30%. For `N#C[C@H](Cc1ccc(-c2ccc3c(n2)C2(CCN(C4COC4)CC2)OC3)cc1)NC(=O)[C@@H]1CNCCCO1` [Compound D30], in that order: less than 30% and 30 to 75%.

With `CN1CCC(n2c(=O)oc3ccc(-c4ccc(C[C@@H](C#N)NC(=O)[C@@H]5CNCCCO5)c(F)c4)cc32)CC1` [Compound D83], the inhibition at 0.005 µM was less than 30% and the inhibition at 0.05 µM is less than 30%. `CN1CCC2(CC1)OC(=O)c1cnc(-c3ccc(C[C@@H](C#N)NC(=O)[C@@H]4CNCCCO4)cc3)cc12` [Compound D38] came in with an inhibition at 0.005 µM of less than 30% and an inhibition at 0.05 µM of 30 to 75%.

In turn, `Cn1c(=O)oc2ccc(-c3ccc(C[C@@H](C#N)NC(=O)[C@@H]4CNCC5(CC5)CO4)nn3)cc21` [Compound D48] registered an inhibition at 0.005 µM of 30 to 75%, an inhibition at 0.05 µM of 75 to 100% and an IC50 of 0.012 µM. The molecule `CN1CCC1Cn1c(=O)oc2ccc(-c3ccc(C[C@@H](C#N)NC(=O)[C@@H]4CNCCCO4)c(F)c3)cc21` (stereo partly shown) [Compound D97] yielded an IC50 of 0.109 µM. Still for that read-out and setting: for `CN1CC2(Cc3cc(-c4ccc(C[C@@H](C#N)NC(=O)[C@@H]5CNCCCO5)c(F)c4)ccc3C2=O)C1` [Compound D115] the value was 0.0294 µM. For `CN1CCC2(CC1)OC(=O)c1ccc(-c3ccc(C[C@@H](C#N)NC(=O)[C@@H]4CNCCCO4)c(F)c3)cc12` [Compound D104], the inhibition at 0.005 µM is less than 30% and the inhibition at 0.05 µM is less than 30%. `Cn1c(=O)oc2ncc(-c3ccc(C[C@@H](C#N)NC(=O)[C@@H]4CNCCCO4)c(F)c3)nc21` [Compound D66] gave an inhibition at 0.005 µM of less than 30% and an inhibition at 0.05 µM of less than 30%. As for `CN1CCC2(C1)OCc1ccc(-c3ccc(C[C@@H](C#N)NC(=O)[C@@H]4CNCCCO4)cc3)cc12` (stereo partly shown) [Compound D36], the inhibition at 0.005 µM is less than 30% and the inhibition at 0.05 µM was in the range of 30 to 75%. With `N#C[C@H](Cc1ccc(-c2ccc3c(c2)C2(CCN(C4COC4)C2)OC3)cc1F)NC(=O)[C@@H]1CNCCCO1` (stereo partly shown) [Compound D87], the inhibition at 0.005 µM is less than 30%, the inhibition at 0.05 µM is 75 to 100% and it took 0.0128 µM to reach half-maximal inhibition (IC50).

`CN1CCC2(CC1)OCc1cnc(-c3ccc(C[C@@H](C#N)NC(=O)[C@@H]4CNCCCO4)cc3)cc12` [Compound D39] yielded an inhibition at 0.005 µM of less than 30% and an inhibition at 0.05 µM of 30 to 75%. For `N#C[C@H](Cc1ccc(-c2ccc3oc(=O)n(C4CCN(C5COC5)CC4)c3c2)cc1F)NC(=O)[C@@H]1CNCCCO1` [Compound D82], in that order: less than 30% and less than 30%.

Consider `C[C@H](O)Cn1c(=O)oc2ccc(-c3ccc(C[C@@H](C#N)NC(=O)[C@@H]4CNCCCO4)cc3)cc21` [Compound D32], for which the inhibition at 0.005 µM was less than 30% and the inhibition at 0.05 µM was 30 to 75%.

`N#C[C@H](Cc1ccc(-c2ccc3c(c2)C=CC32CCN(C3COC3)CC2)cc1F)NC(=O)[C@@H]1CNCCCO1` [Compound D93] displayed an inhibition at 0.005 µM of 30 to 75%, an inhibition at 0.05 µM of 75 to 100% and an IC50 of 0.0158 µM. Consider `N#C[C@H](Cc1ccc(-c2ccc3oc(=O)n(C4CC(=O)C4)c3c2)cc1F)NC(=O)[C@@H]1CNCCCO1` [Compound D68], for which the inhibition at 0.005 µM is less than 30% and the inhibition at 0.05 µM is less than 30%. `N#C[C@H](Cc1ccc(-c2ccc3c(c2)C2(COC2)OC3=O)cc1F)NC(=O)[C@@H]1CNCCCO1` [Compound D119] displayed an IC50 of 0.0061 µM.

`C[C@H]1CNC[C@@H](C(=O)N[C@H](C#N)Cc2ccc(-c3ccc4oc(=O)n(C)c4c3)cc2F)OC1` [Compound D109] returned an inhibition at 0.005 µM of 30 to 75%, an inhibition at 0.05 µM of 75 to 100% and an IC50 of 0.0053 µM. In turn, `N#C[C@H](Cc1ccc(-c2ccc3c(c2)CCC3=O)[se]1)NC(=O)[C@@H]1CNCCCO1` [Compound D121] gave an IC50 of 0.0047 µM. As for `Cn1cnc(-n2c(=O)oc3ccc(-c4ccc(C[C@@H](C#N)NC(=O)[C@@H]5CNCCCO5)c(F)c4)cc32)c1` [Compound D62], the inhibition at 0.005 µM was less than 30% and the inhibition at 0.05 µM lay in the range of 30 to 75%.

`N#C[C@H](Cc1ccc(-c2ccc3oc(=O)n(CC4COC4)c3c2)cc1F)NC(=O)[C@@H]1CNCCCO1` [Compound D94] showed an inhibition at 0.005 µM of less than 30% and an inhibition at 0.05 µM of less than 30%. Consider `N#C[C@H](Cc1ccc(-c2cc3c(cc2F)C(=O)OC3)cc1F)NC(=O)[C@@H]1CNCCCO1` [Compound D79], for which the inhibition at 0.005 µM was less than 30% and the inhibition at 0.05 µM was less than 30%.

On to `CO[C@@H](C)Cn1c(=O)oc2ccc(-c3ccc(C[C@@H](C#N)NC(=O)[C@@H]4CNCCCO4)cc3)cc21` [Compound D33], for which the inhibition at 0.005 µM is less than 30% and the inhibition at 0.05 µM lay in the range of 30 to 75%.

`CN1CCc2nc(-c3ccc(C[C@@H](C#N)NC(=O)[C@@H]4CNCCCO4)cc3)sc2C1` [Compound D18]: the inhibition at 0.005 µM is less than 30% and the inhibition at 0.05 µM was 30 to 75%. The molecule `N#C[C@H](Cc1ccc(-c2ccc3c(c2)C(=O)CO3)cc1)NC(=O)[C@@H]1CNCCCO1` [Compound D10] registered an inhibition at 0.005 µM of less than 30% and an inhibition at 0.05 µM of 30 to 75%. In turn, `N#C[C@H](Cc1ccc(-c2ccc3oc(=O)n(C4CS(=O)(=O)C4)c3c2)cc1F)NC(=O)[C@@H]1CNCCCO1` [Compound D71] gave an inhibition at 0.005 µM of less than 30% and an inhibition at 0.05 µM of less than 30%. In turn, `N#C[C@H](Cc1ccc(-c2ccc3oc(=O)n(C4COC4)c3c2)cc1)NC(=O)[C@@H]1CNCCCO1` [Compound D03] gave an inhibition at 0.005 µM of less than 30% and an inhibition at 0.05 µM of 30 to 75%. For `Cn1c(=O)oc2ccc(-c3ccc(C[C@@H](C#N)NC(=O)[C@@H]4CNCC5(CC5)CO4)nc3)cc21` [Compound D47], in that order: less than 30% and 75 to 100%. Molecule `N#C[C@H](Cc1ccc(-c2ccc3c(c2)C(=O)OC3)cc1)NC(=O)[C@@H]1CNCCCO1` [Compound D45] registered an inhibition at 0.005 µM of less than 30% and an inhibition at 0.05 µM of 30 to 75%. Consider `Cn1c(=O)oc2ccc(-c3ccc(C[C@@H](C#N)NC(=O)[C@@H]4CNCC(C)(C)CO4)cc3)cc21` [Compound D50], for which the IC50 is greater than 1 µM.

On to `N#C[C@H](Cc1ccc(-c2ccc3c(c2)CC(=O)C3)cc1)NC(=O)[C@@H]1CNCCCO1` [Compound D08], for which the inhibition at 0.005 µM is less than 30% and the inhibition at 0.05 µM lay in the range of 30 to 75%. For `N#C[C@H](Cc1ccc(-c2ccc3c(c2)C2(CS(=O)(=O)C2)OC3=O)cc1F)NC(=O)[C@@H]1CNCCCO1` [Compound D72], in that order: less than 30% and less than 30%. For `CN1CCN(S(=O)(=O)c2ccc(-c3ccc(C[C@@H](C#N)NC(=O)[C@@H]4CNCCCO4)cc3)cc2)CC1` [Compound D16], in that order: less than 30% and 30 to 75%. For `CN1CCC(n2c(=O)oc3ccc(-c4ccc(C[C@@H](C#N)NC(=O)[C@@H]5CNCCCO5)c(F)c4)cc32)C(F)(F)C1` (stereo partly shown) [Compound D100], in that order: less than 30% and 30 to 75%. In turn, `Cn1c(=O)oc2cc(-c3ccc(C[C@@H](C#N)NC(=O)[C@@H]4CNCCCO4)cc3)ccc21` [Compound D17] registered an inhibition at 0.005 µM of less than 30% and an inhibition at 0.05 µM of 30 to 75%. For `CN(C)CC1OC(=O)c2ccc(-c3ccc(C[C@@H](C#N)NC(=O)[C@@H]4CNCCCO4)c(F)c3)cc21` (stereo partly shown) [Compound D76], in that order: less than 30% and 75 to 100%.
